Laboratory results as given in US20100113276A1, “USE OF N2-PHENYLAMIDINES AS HERBICIDES” (BAYER CROPSCIENCE AG, priority 2007, published 2010).

Test: log P by HPLC on reversed-phase column (C18), EEC Directive 79/831 Annex V.A8
Format: physicochemical
Settings: C18, 40° C.; for log p H3PO4: 0.1% aqueous phosphoric acid / acetonitrile; for log p HCO2H: aqueous formic acid / acetonitrile
Experimental: The log P data were determined in accordance with the EEC Directive 79/831 Annex V.A8 by HPLC (High Performance Liquid Chromatography) on a reversed-phase column (C18) using the following methods: […]
Calibration was carried out with the help of unbranched alkan-2-ones (consisting of 3 to 13 or 16 carbon atoms) with known logP values (determination of the logP values via the retention times by means of linear interpolation between two subsequent alkanones).

| log p acidic | log p H3PO4 | log p HCO2H | log p neutral | Compound |
| --- | --- | --- | --- | --- |
| 2.75 | – | – | – | CCN(C)C=Nc1cc(OC)c(Oc2ccc(Cl)c(C(C)(C)C)c2)cc1C [compound 733] |
| 2.94 | – | – | – | CCN(C)C=Nc1cc(C(F)(F)F)c(Oc2cccc(C(C)(C)C)c2)cc1C [compound 761] |
| 2.6 | – | – | – | Cc1cc(-c2cccc(C(C)C)c2)c(C(F)F)cc1N=CN1CCCCC1 [compound 799] |
| – | 1.86 | 1.91 | 4.49 | CCN(C)C=Nc1cc(Cl)c(Oc2ccccc2)cc1Cl [compound 801] |
| – | 2 | 2.08 | 4.84 | CC(C)N(C)C=Nc1cc(Cl)c(Oc2ccccc2)cc1Cl [compound 802] |
| – | 2.03 | 2.12 | 5.09 | Clc1cc(Oc2ccccc2)c(Cl)cc1N=CN1CCCCC1 [compound 804] |
| – | 2.74 | 2.79 | 5.91 | CCN(C)C=Nc1cc(Cl)c(Oc2cccc(C(C)(C)C)c2)cc1Cl [compound 806] |
| – | 2.7 | 2.82 | 6.13 | CC(C)N(C)C=Nc1cc(Cl)c(Oc2cccc(C(C)(C)C)c2)cc1Cl [compound 807] |
| – | 2.81 | 3.04 | 6.41 | CC(C)(C)c1cccc(Oc2cc(Cl)c(N=CN3CCCCC3)cc2Cl)c1 [compound 809] |
| – | 2.9 | 2.94 | 6.13 | CN(C)C=Nc1cc(Cl)c(Oc2ccc(Cl)c(C(C)(C)C)c2)cc1Cl [compound 810] |
| – | 3.16 | 3.17 | 6.64 | CCN(C)C=Nc1cc(Cl)c(Oc2ccc(Cl)c(C(C)(C)C)c2)cc1Cl [compound 811] |
| – | 3.35 | 3.31 | 6.81 | CC(C)N(C)C=Nc1cc(Cl)c(Oc2ccc(Cl)c(C(C)(C)C)c2)cc1Cl [compound 812] |
| – | 3.45 | 3.62 | 7.08 | CC(C)(C)c1cc(Oc2cc(Cl)c(N=CN3CCCCC3)cc2Cl)ccc1Cl [compound 814] |
| – | 2.35 | 2.45 | 5.15 | CN(C)C=Nc1cc(Cl)c(Oc2ccc(Cl)c(C(F)(F)F)c2)cc1Cl [compound 815] |
| – | 2.6 | 2.65 | 5.56 | CCN(C)C=Nc1cc(Cl)c(Oc2ccc(Cl)c(C(F)(F)F)c2)cc1Cl [compound 816] |
| – | 2.74 | 2.8 | 5.88 | CC(C)N(C)C=Nc1cc(Cl)c(Oc2ccc(Cl)c(C(F)(F)F)c2)cc1Cl [compound 817] |
| – | 2.85 | 3 | 6.12 | FC(F)(F)c1cc(Oc2cc(Cl)c(N=CN3CCCCC3)cc2Cl)ccc1Cl [compound 819] |
| – | 2.34 | 2.56 | 5.25 | CCN(C)C=Nc1cc(Cl)c(Oc2nc(C(C)(C)C)ns2)cc1Cl [compound 825] |
| – | 2.53 | 2.78 | 5.61 | CC(C)N(C)C=Nc1cc(Cl)c(Oc2nc(C(C)(C)C)ns2)cc1Cl [compound 826] |

| log p acidic | log p H3PO4 | log p HCO2H | log p neutral | Compound |
| --- | --- | --- | --- | --- |
| 2.4 | – | – | – | CCN(C)C=Nc1cc(F)c(Oc2cccc(C(C)(C)C)c2)cc1F [compound 830] |
| 2.71 | – | – | 5.74 | CC(C)(C)c1cc(Oc2cc(F)c(N=CN3CCCCC3)cc2F)ccc1Cl [compound 836] |
| 2.79 | – | – | – | CCN(C)C=Nc1cc(F)c(-c2ccc(C(C)(C)C)cc2)cc1F [compound 846] |
| 2.22 | – | – | – | CCN(C)C=Nc1cc(F)c(-c2ccc(Cl)c(C(F)(F)F)c2)cc1F [compound 854] |
| 2.98 | – | – | – | CCN(C)C=Nc1cc(Cl)c(Oc2cccc(C(C)(C)C)c2)cc1I [compound 862] |
| – | 2.76 | 2.55 | 5.79 | CCN(C)C=Nc1cc(C)c(Oc2cccc(C(C)(C)C)c2)cc1Cl [compound 870] |
| – | 2.79 | 2.54 | 5.84 | Cc1cc(N=CN(C)C(C)C)c(Cl)cc1Oc1cccc(C(C)(C)C)c1 [compound 871] |
| – | 3 | 2.79 | 6.42 | Cc1cc(N=CN2CCCCC2)c(Cl)cc1Oc1cccc(C(C)(C)C)c1 [compound 873] |
| – | 2.56 | 2.38 | 5.51 | CCN(C)C=Nc1cc(C)c(Oc2cccc(C(C)C)c2)cc1Cl [compound 875] |
| – | 2.77 | 2.62 | 6.14 | Cc1cc(N=CN2CCCCC2)c(Cl)cc1Oc1cccc(C(C)C)c1 [compound 878] |
| – | 2.63 | 2.47 | 5.44 | CCN(C)C=Nc1cc(C)c(Oc2cccc(Oc3ccccc3)c2)cc1Cl [compound 880] |
| – | 2.82 | 2.66 | 6.03 | Cc1cc(N=CN2CCCCC2)c(Cl)cc1Oc1cccc(Oc2ccccc2)c1 [compound 882] |
| – | 2.87 | 2.69 | 5.86 | CCN(C)C=Nc1cc(C)c(Oc2ccc(C(C)(C)C)cc2)cc1Cl [compound 884] |
| – | 3.01 | 2.78 | 6.49 | Cc1cc(N=CN2CCCCC2)c(Cl)cc1Oc1ccc(C(C)(C)C)cc1 [compound 886] |
| – | 2.61 | 2.45 | 5.58 | CCN(C)C=Nc1cc(C)c(Oc2ccc(C(C)C)cc2)cc1Cl [compound 888] |
| – | 2.87 | 2.62 | 5.91 | Cc1cc(N=CN(C)C(C)C)c(Cl)cc1Oc1ccc(C(C)C)cc1 [compound 889] |
| – | 2.82 | 2.64 | 6.21 | Cc1cc(N=CN2CCCCC2)c(Cl)cc1Oc1ccc(C(C)C)cc1 [compound 891] |
| – | 2.35 | 2.3 | 5.08 | Cc1cc(N=CN(C)C)c(Cl)cc1Oc1ccc(Cl)c(C(F)(F)F)c1 [compound 892] |
| – | 2.51 | 2.44 | 5.49 | CCN(C)C=Nc1cc(C)c(Oc2ccc(Cl)c(C(F)(F)F)c2)cc1Cl [compound 893] |

| log p acidic | log p H3PO4 | log p HCO2H | log p neutral | Compound |
| --- | --- | --- | --- | --- |
| – | 1.73 | 2.55 | – | Cc1cc(N=CN(C)C(C)C)c(Cl)cc1Oc1ccc(Cl)c(C(F)(F)F)c1 [compound 894] |
| – | 2.88 | 2.78 | 6.12 | CCN(C)C=Nc1cc(C)c(Oc2ccc(Cl)c(C(C)C)c2)cc1Cl [compound 898] |
| – | 3.07 | 2.92 | 6.45 | Cc1cc(N=CN(C)C(C)C)c(Cl)cc1Oc1ccc(Cl)c(C(C)C)c1 [compound 899] |
| – | 3.12 | 3 | 6.72 | Cc1cc(N=CN2CCCCC2)c(Cl)cc1Oc1ccc(Cl)c(C(C)C)c1 [compound 901] |
| – | 1.57 | 2.65 | 6.11 | Cc1cc(N=CN(C)C)c(Cl)cc1Oc1ccc(Cl)c(C(C)(C)C)c1 [compound 902] |
| – | 2.98 | 2.8 | 6.54 | CCN(C)C=Nc1cc(C)c(Oc2ccc(Cl)c(C(C)(C)C)c2)cc1Cl [compound 903] |
| – | 1.35 | 3.01 | 6.87 | Cc1cc(N=CN(C)C(C)C)c(Cl)cc1Oc1ccc(Cl)c(C(C)(C)C)c1 [compound 904] |
| – | 3.36 | 3.25 | 7.04 | Cc1cc(N=CN2CCCCC2)c(Cl)cc1Oc1ccc(Cl)c(C(C)(C)C)c1 [compound 906] |
| 2.1 | – | – | 4.92 | CCN(C)C=Nc1cc(C)c(Oc2nc(C(C)(C)C)ns2)cc1Cl [compound 916] |
| 2.3 | – | – | 5.31 | CCN(C)C=Nc1cc(C)c(-c2ccc(Cl)c(C(F)(F)F)c2)cc1Cl [compound 928] |
| – | 3.35 | 3.39 | 6.63 | CCN(C)C=Nc1cc(C(F)(F)F)c(Oc2ccc(Cl)c(C(C)(C)C)c2)cc1Cl [compound 944] |
| – | 3.61 | 3.68 | 7.1 | CC(C)(C)c1cc(Oc2cc(Cl)c(N=CN3CCCCC3)cc2C(F)(F)F)ccc1Cl [compound 946] |
| – | 2.61 | 2.78 | 5.39 | CN(C)C=Nc1cc(C(F)(F)F)c(Oc2ccc(Cl)c(C(F)(F)F)c2)cc1Cl [compound 947] |
| – | 2.87 | 2.98 | 5.74 | CCN(C)C=Nc1cc(C(F)(F)F)c(Oc2ccc(Cl)c(C(F)(F)F)c2)cc1Cl [compound 948] |
| – | 2.82 | 3.08 | 6 | CC(C)N(C)C=Nc1cc(C(F)(F)F)c(Oc2ccc(Cl)c(C(F)(F)F)c2)cc1Cl [compound 949] |
| – | 3.03 | 3.42 | 6.2 | FC(F)(F)c1cc(Oc2cc(Cl)c(N=CN3CCCCC3)cc2C(F)(F)F)ccc1Cl [compound 951] |
| 2.74 | – | – | 6.15 | CCN(C)C=Nc1cc(C(F)(F)F)c(-c2ccc(C(C)(C)C)cc2)cc1Cl [compound 962] |
| – | – | 3.11 | 7.36 | COc1cc(Oc2ccc(Cl)c(C(C)(C)C)c2)c(OC)cc1N=CN(C)C [compound 981] |
| 2.23 | – | – | 4.14 | CCN(C)C=Nc1cc(OC)c(Oc2ccc(Cl)c(C(F)(F)F)c2)cc1OC [compound 986] |
